# Assay results reported in patent US7638509B2, “Diene compounds and formulations” (priority 2003, dated 2009).
# Key:
# PSA = PSA expression in LNCaP cells, Western blot; assay type: cell-based, human; conditions: 48 h, 1 μM compound + 1 nM DHT
# Procedure: Western Blot. […] An antibody for -actin (Santa Cruz Biotechnology) was used as the internal control. Blots were quantitated by Collage software (Fotodyne).
# The 33-kDa protein was quantitated. β-Actin expression was used as an internal control. […] The mean±SD of three separate experiments was determined. […] Total cell number was counted by hemocytometer. The mean of at least three determinations was determined.
# wild-type AR [1] = molecular target: T1, wild-type AR (Homo sapiens, UniProt P10275); assay: AR transcription, MMTV-Luc reporter in COS-1 cells co-transfected with pSG5-AR; assay type: cell-based; design: expressed in transfected cells; host or cells: COS-1
# T1 sequence (P10275 1-920): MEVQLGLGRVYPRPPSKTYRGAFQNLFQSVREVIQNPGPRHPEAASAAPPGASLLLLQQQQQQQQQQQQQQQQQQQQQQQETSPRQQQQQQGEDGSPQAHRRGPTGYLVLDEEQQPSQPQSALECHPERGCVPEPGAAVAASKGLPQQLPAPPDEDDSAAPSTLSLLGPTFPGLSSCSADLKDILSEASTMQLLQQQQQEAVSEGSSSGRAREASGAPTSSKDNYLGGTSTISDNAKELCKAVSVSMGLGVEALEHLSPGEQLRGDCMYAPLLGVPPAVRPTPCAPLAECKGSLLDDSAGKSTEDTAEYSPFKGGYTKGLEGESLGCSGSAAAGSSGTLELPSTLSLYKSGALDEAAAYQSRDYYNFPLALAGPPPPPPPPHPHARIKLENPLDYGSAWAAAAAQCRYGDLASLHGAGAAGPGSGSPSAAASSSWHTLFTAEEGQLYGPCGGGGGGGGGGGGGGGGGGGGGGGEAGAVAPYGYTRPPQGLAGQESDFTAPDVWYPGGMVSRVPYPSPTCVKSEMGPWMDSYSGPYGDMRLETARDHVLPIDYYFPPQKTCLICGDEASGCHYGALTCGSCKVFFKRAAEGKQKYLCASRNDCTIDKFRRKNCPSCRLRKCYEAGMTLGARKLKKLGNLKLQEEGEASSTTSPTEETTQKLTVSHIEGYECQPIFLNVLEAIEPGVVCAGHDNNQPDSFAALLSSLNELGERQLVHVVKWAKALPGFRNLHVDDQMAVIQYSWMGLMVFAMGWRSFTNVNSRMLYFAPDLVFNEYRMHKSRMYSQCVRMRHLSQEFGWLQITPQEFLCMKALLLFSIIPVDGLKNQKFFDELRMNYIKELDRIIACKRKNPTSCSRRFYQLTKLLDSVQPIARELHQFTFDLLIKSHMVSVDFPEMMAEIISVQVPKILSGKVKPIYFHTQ
# Procedure: Cell Culture, Transfection, and Reporter Gene Assay. The human prostate cancer cell lines, LNCaP, PC-3, and DU145, and non-prostate cancer cell line COS-1 were maintained in RPMI or Dulbecco's modified Eagle's medium (DMEM) (Life Technologies) supplemented with 10% fetal bovine serum (FBS). […] Briefly, cells seeded to reach a density of 50-60% confluence in 12 well tissue culture plates were transfected with 1.5 μg of DNA according to “SuperFect transfection” instructions (Qiagen). After 2-3 h incubation, cells were treated with medium supplemented with charcoal-stripped FBS containing either ethanol or ligands for 24 h. The cells were then harvested and whole cell extracts were used for Luc assay. The Luc activity was determined using a Dual-Luciferase Reporter Assay System (Promega) and luminometer.
# The pSG5-AR was co-transfected in COS-1 cells. […] Values were obtained from the mean±SD of at least three determinations. DU145 cells were transfected with the pSG5-AR and MMTV-Luc in the presence or absence of pSG5-ARA70. […] Values were obtained for the mean±SD of at least three determinations.
# AR = molecular target: T2, AR (Homo sapiens, UniProt P10275); assay: Steroid hormone specificity, androgenic activity in PC-3 cells; assay type: cell-based; conditions: PC-3, ADEK at 0.01 mM, 0.1 mM and 1.0 mM, 24 h
# T2 construct: expressed in transfected cells; host or cells: PC-3
# T2 sequence (P10275 1-920): T1 sequence (P10275 1-920)
# Procedure: (§1) Cell Culture, Transfection, and Reporter Gene Assay. The human prostate cancer cell lines, LNCaP, PC-3, and DU145, and non-prostate cancer cell line COS-1 were maintained in RPMI or Dulbecco's modified Eagle's medium (DMEM) (Life Technologies) supplemented with 10% fetal bovine serum (FBS). Transfections and luciferase (Luc) assays were performed as previously described (Miyamoto, H., Yeh, S., Wilding, G. & Chang, C. (1998) Proc. Natl. Acad. Sci. USA 95, 7379-7384; Miyamoto, H., Rahman, M., Takatera, H., Kang, H.-Y., Yeh, S., Chang, H.-C., Nishimura, K., Fujimoto, N. & Chang, C. (2002) J. Biol. Chem. 277, 4609-4617). Briefly, cells seeded to reach a density of 50-60% confluence in 12 well tissue culture plates were transfected with 1.5 μg of DNA according to “SuperFect transfection” instructions (Qiagen). […] The Luc activity was determined using a Dual-Luciferase Reporter Assay System (Promega) and luminometer.
# (§2) Steroid Hormone Specificity of ADEK. To characterize the steroid hormone activity of ADEK, PC-3 cells were transfected with steroid receptor/reporter (progesterone receptor (PR)/MMTV-Luc, glucocorticoid receptor (GR)/MMTV-Luc, or estrogen receptor (ER)/ERE-Luc) and analyzed for expression of the Luc reporter gene. […] The Luc activity was measured relative to that of ETOH treatment (set as 1-fold). […]
# estrogen receptor (ER) = assay: Steroid hormone specificity, ER/ERE-Luc in PC-3 cells; assay type: cell-based, human; conditions: PC-3, ER/ERE-Luc, ADEK at 0.01 mM, 0.1 mM and 1.0 mM, 24 h
# Procedure: as §1, §2
# wild-type AR [2] = molecular target: T1, wild-type AR; assay: Competitive [3H]-R1881 ligand binding assay, extracts of COS-1 transfected with wild-type AR; design: expressed in transfected cells; host or cells: COS-1; conditions: 1 nM [3H]-R1881, unlabeled ligand 1-10,000 nM, relative to DHT
# Procedure: Ligand Binding Assay. Whole cell extracts from COS-1 with transient transfection of pSG5-AR, or LNCaP without transfection, were incubated for 2 h at 37° C. with 1 nM [^3H]-synthetic androgen methyltrienolone (R1881) in the presence and absence of increasing concentrations (1-10,000 nM) of unlabeled ligands. Then, hydroxyapatite (Bio-Rad) was added and stirred for 15 min at 4° C. After centrifugation and washing, radioactivity was determined by scintillation counting.
# Clinically available antiandrogens have an affinity for the AR, allowing a competition with androgens for binding. To determine whether ADEK has this common feature of AR antagonists, the competitive androgen binding assay was performed.
smiles,measurement,setting,value
"CC(=O)O[C@H]1C=C[C@@]2(C)C(=CC[C@@H]3[C@@H]2CC[C@@]2(C)[C@H]3CCC23OCCO3)C1 [ADEK, 3β-acetoxy-17,17-ethylenedioxyandrosta-1,5-diene]",DHT-induced PSA expression decreased to (DHT = 100%),PSA,49%
same,relative Luc activity (DHT control = 100%),"wild-type AR [1]; COS-1, 1 nM DHT, compound at 0.01 μM",about 75%
same,relative Luc activity (DHT control = 100%),"wild-type AR [1]; COS-1, 1 nM DHT, compound at 0.1 μM",about 60%
same,"DHT-induced wild-type AR transcription suppressed to (relative Luc activity, DHT = 100%)","wild-type AR [1]; COS-1, 1 nM DHT, compound at 1 μM",21%
same,androgenic activity on wild-type AR transcription (in words),"wild-type AR [1]; COS-1, compared with HF and casodex",lower androgenic activity
same,androgenic activity (in words),AR,no significant
same,estrogenic activity (in words),estrogen receptor (ER),some estrogenic activity
same,RBA in COS-1 with AR,wild-type AR [2],6.0
